Measurements as given in patent US9238658B2, “Substituted piperidinyl-carboxamide derivatives useful as SCD 1 inhibitors” (Janssen Pharmaceutica NV, priority 2011, dated 2016).
pIC50: −log10 of the molar value. “And” between values parts separate entries of the source, which are not always exact repeats. Equal values may be shown once. Marks after values point to notes of the source that are not given here.

How the values were obtained:
SCD1 [1] = biological target: SCD1 (Rattus norvegicus (Rat), UniProt P07308); assay: SCD1 enzymatic assay in rat liver microsomes (RLM); format: biochemical; conditions: for inhibition at 1 µM / % Inh. @ 1 μM: 1 μM test compound
Procedure: Step 1: Preparation of Rat Liver Microsome (RLM)
Sprague Dawley rats from Charles River (200-225 g) underwent 2-cycle of fast-re-feeding (24-hour fast followed by 24-hour feeding with fat-free high carbohydrate diet, Research Diet, D00042802). The livers were removed and homogenized 1:4 (w/v) with pre-chilled, homogenizing buffer (10 mM Tris-HCl, 0.25 M sucrose, 1 mM EDTA, pH 7.4, supplemented with protease inhibitor cocktail). The homogenate was spun at 12,000×g for 15 min at 4° C. The supernatant was then re-centrifuged at 100,000×g for 60 min at 4° C. The pellet was re-suspended in 2 ml pre-chilled […] potassium phosphate buffer, pH 7.2, 10 mM EDTA at a concentration of 20 mg/ml. The resulting rat liver microsome (RLM) preparation was stored at […].
Step 2: SCD1 Enzymatic Assay in RLM:
The SCD1 enzymatic assay was done in a volume of 50 μL using 10 μg of RLM (prepared as described above) in a 96-well polypropylene plate (enzyme reaction buffer contains 0.1 M K-Phosphate Buffer, 10 mM ATP, 6 mM MgCl2, 1 mM CoA, 1 mM β-NADH, 1.6 mM L-glutathione, 20 μM Stearoyl-CoA). Stearoyl-[9,10-^3H]—CoA (ARC-0390, 1 mCi/mL, 60 Ci/mmol,) was added at a final concentration of 2 μCi/mL. Test compound was then added to the reaction mixture at the selected concentration. After incubation at room temperature for 2 hours, 5 μL 1 N HCl was added to stop the reaction, followed by addition of 25 μL of 10% charcoal. The reaction mixture was then transferred to 96-well Multiscreen plate (Millipore, Cat# MSFCN6B50). [^3H2O] was collected into Opti-plate (PE, Cat #6005290) by centrifuge, at 1,000 rpm for 2 minutes. 150 μL Microscint 40 (PE, cat #6013641) was then added to each well and counted on Topcount for [^3H] counts per minute (cpm). The measured cpm values were fitted with Sigmoidal dose-response curve fit with Graphpad Prism.

SCD1 [2] = biological target: T1, SCD1 (Homo sapiens (Human), UniProt O00767); assay: SCD1 14C-palmitate assay in A431 cells; format: cell-based; conditions: read-out: A431 cells 14C-PA IC50
Procedure: Human epithelial carcinoma A431 cells were seeded at 400,000 cells per well in 48-well tissue culture plate and treated with 2 cycles of fasting in low glucose medium (DMEM, Cellgro #10-014-CV, 1 g/L glucose, 2% Charcoal Filtered FBS) for 24 hours; and re-feeding with high glucose medium for 24 hours (DMEM, Cellgro #10-013-CM, 4.5 g/L glucose, 10% Charcoal Filtered FBS and 0.05 mg/mL Lilly Humulin R, Cat.#, HI-210). Prior to running the assay, the cells were washed twice with high glucose medium (400 μL), followed by addition of 250 μL assay buffer (DMEM, 4.5 g/L glucose, 0.05 mg/mL Human Insulin, 0.1% Fatty Acid Free BSA) to each well. Then, 100 μL of assay buffer containing 20 μM Palmitic Acid, 0.05 μCi ^14C Palmitic Acid (Perkin Elmer, NEC075H) and test compound (at selected concentration) was added to each well. The cells were then Incubated at 37° C. and 5% CO2 tissue culture incubator for 4 hours, followed by extensive washes with pre-chilled PBS. The cell plates were then frozen at −20° C. overnight. After thawing out the plates, 100 μL of 1N KOH was added to each well and the plates were incubated at 37° C. for 30 mins. Cell lysates were transferred to 1 mL Eppendorf tubes and incubated at 95° C. for 1 hour, followed by addition of 10 μL formic acid and 220 μL acetonitrile. The tubes were then centrifuged at 12,000 rpm and the supernatant dried under N2 for 2-3 hours. Dried extract was re-suspended in 60 μL hexane and loaded onto TLC plates (pre-coated with 10% AgNO3 in acetonitrile). The TLC plates were placed into glass running chamber containing 200 mL running solution (100 mL running solution: 92.5 mL chloroform, 6 mL methanol, 750 μL acetic acid, 750 μL dH2O). After running, the TLC plates were air dried and scanned on Bioscan AR-2000 for quantification of ^14C-palmitioleate and ^14C-palmitate peaks. Area under the curve of the peaks were used to calculate product/substrate ratio, an index of SCD1 activity.

[3] = 10-day diet-induced obese C57bl/6 mice study; format: in vivo; conditions: DIO C57BL/6J mice, oral, 10 days
Procedure: Male DIO C57BL/6J mice from Taconic were maintained on high fat diet D12492 containing 60% kCal of mostly saturated fats (Research Diets Inc.) for 4 week from 6-week old. Test compounds were prepared in 0.5% hydroxypropyl methyl cellulose for oral dosing at 10 mg/kg or 30 mg/kg, either q.d. or b.i.d., as noted in the results table below. After 10-days of treatment, body weight change are recorded. Plasma liver enzyme levels (ALT and AST) were also determined.
Compound #6 of the present invention was tested according to the procedure as described above, with results as listed in Table 4, below. In the results presented below, * indicates a calculated p value<0.05 vs. vehicle-treated group.

SCD1 [4] = biological target: T1, SCD1; assay: SCD1 13C-palmitic acid assay in A431 cells; format: cell-based; conditions: read-out: A431 cells 13C-PA IC50
Procedure: Human epithelial carcinoma A431 cells were seeded at 100,000 cells/well in complete growth medium (DMEM, Cellgro #10-013-CM, 4.5 g/L glucose, 10% FBS) in the presence of 0.05 mg/mL human insulin (Hannas Pharmaceutical Supply Co Inc, Humanlin 100 U/ml, 4 mg/ml) in 96-well tissue culture plate. […] The cells were then returned to the tissue culture incubator (37° C. and 5% CO2) for 4 hrs. At the end of incubation, the cells were washed three times with 200 μL/well Hanks buffer (HBSS) and then stored at −20° C. until extraction.
For fatty acid extraction, after thawing out the plates, 40 μL of 1N KOH (containing 5 μM of internal standard 7,7,8,8-D4 palmitate) was added to each well and cell plates were incubated at 37° C. for 30 minutes. […] Acetonitrile (100 μL) was then added to extract fatty acids, followed by centrifugation at 3000 rpm for 10 minutes. 75 μL of extract was then transferred to a new glass vial in a 96-well cluster plate. 5 μL was injected for LC/MS analysis for detection of ^13C-palmitic acid and ^13C-palmitoleic acid. Formation of product ^13C-palmitoleic acid was determined as an index of SCD1 activity.
LC/MS analysis was performed as following. An Agilent 1100 Liquid Chromatographic System (Palo Alto, Calif.) consisting of a binary pump, a degasser and an autosampler was used. Separation of free fatty acids was performed on a Zorbax SB—C8 column (2.1×50 mm, particle size=3.5 μm). An isocratic elution was carried out with 10 mM triethylamine acetate in water:acetonitrile (3:7) at a flow rate of 0.3 mL/min. The column temperature was set at 30° C. and the sample injection volume was 5 μL. The LC run cycle was 4 min, A Micromass triple-quadrupole Quattro Micro mass […] (Waters, Beverly, Mass.) was interfaced with the LC system through a Z-spray electrospray ion source and was operated in the negative ion mode. Nitrogen was used as nebulizing gas, desolvation gas and cone curtain gas and argon was chosen as collision gas. The triple quadrupole MS source parameters were set as follows: capillary voltage, 3200V; cone voltage, 25V; extractor 2V, source temperature, 120° C.; desolvation temperature, 300° C.; cone gas flow, 50 L/h; and desolvation gas flow, 700 L/h. […] MassLynx software version 4.0 was used for system control and data processing. The signal of U—^13C-palmitoleic acid was normalized to an internal standard.

Sequence of SCD1 (Rattus norvegicus (Rat), UniProt P07308) (P07308 whole entry): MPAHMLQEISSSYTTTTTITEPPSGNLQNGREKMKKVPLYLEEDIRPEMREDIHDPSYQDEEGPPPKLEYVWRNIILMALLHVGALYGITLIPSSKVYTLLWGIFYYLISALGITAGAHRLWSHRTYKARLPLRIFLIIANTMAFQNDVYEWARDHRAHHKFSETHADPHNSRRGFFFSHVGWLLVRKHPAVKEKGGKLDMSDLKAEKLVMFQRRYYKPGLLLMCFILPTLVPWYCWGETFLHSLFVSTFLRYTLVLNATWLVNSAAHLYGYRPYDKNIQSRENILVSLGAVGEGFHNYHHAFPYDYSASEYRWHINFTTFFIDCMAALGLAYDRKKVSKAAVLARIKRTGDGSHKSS
T1 sequence (O00767 whole entry): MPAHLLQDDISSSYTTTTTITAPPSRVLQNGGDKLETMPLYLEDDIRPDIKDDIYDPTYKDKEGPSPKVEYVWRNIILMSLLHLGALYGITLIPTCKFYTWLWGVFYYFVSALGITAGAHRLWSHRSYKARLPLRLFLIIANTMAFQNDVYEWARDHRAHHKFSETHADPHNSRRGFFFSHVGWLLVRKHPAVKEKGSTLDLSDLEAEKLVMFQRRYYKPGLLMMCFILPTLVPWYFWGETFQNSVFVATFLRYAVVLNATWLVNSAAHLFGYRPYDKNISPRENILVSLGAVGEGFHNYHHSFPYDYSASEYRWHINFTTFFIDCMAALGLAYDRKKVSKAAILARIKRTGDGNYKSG

| SMILES | pIC50 (SCD1 [1]) | inhibition at 1 µM (SCD1 [1]) [%] | pIC50 (SCD1 [2]) | pIC50 (SCD1 [4]) | other results |
| --- | --- | --- | --- | --- | --- |
| CNC(=O)c1cccc(NC(=O)N2CCC(c3noc4ccc(F)cc34)CC2)c1 [Compound 5] | 6.38 | 74 | 6.15 and 6.14 | – | – |
| CNC(=O)c1cccc(NC(=O)N2CCC(n3ccc4ccccc43)CC2)c1 [Compound 2, 4-(1H-indol-1-yl)-N-(3-(methylcarbamoyl)phenyl)piperidine-1-carboxamide] | 6.77 | 84 | 6.42 | – | – |
| CCCc1nc2ccc(NC(=O)N3CCC(c4noc5ccc(F)cc45)CC3)cc2s1 [Compound 9, 4-(5-fluorobenzo[d]isoxazol-3-yl)-N-(2-propylbenzo[d]thiazol-6-yl)piperidine-1-carboxamide] | 6.35 | 79 | 6.19 | – | – |
| Cc1csc(NC(=O)N2CCC(c3noc4ccc(F)cc34)CC2)n1 [Compound 6, 4-(5-fluorobenzo[d]isoxazol-3-yl)-N-(4-methylthiazol-2-yl)-piperidine-1-carboxamide] | 6.85 | 88 | 6.54 | 7.27 | Body weight change (g) ([3]; 10 mg/kg, q.d): 0.00 ± 0.36* g; Plasma ALT (U/L) ([3]; 10 mg/kg, q.d): 57 ± 7 U/L; Plasma AST (U/L) ([3]; 10 mg/kg, q.d): 89 ± 7 U/L; Body weight change (g) ([3]; 30 mg/kg, bid): −0.69 ± 0.38 * g; Plasma ALT (U/L) ([3]; 30 mg/kg, bid): 41 ± 3 U/L; Plasma AST (U/L) ([3]; 30 mg/kg, bid): 102 ± 17 U/L; Body weight change (g) ([3]; 30 mg/kg, q.d): 0.01 ± 0.24* g; Plasma ALT (U/L) ([3]; 30 mg/kg, q.d): 68 ± 12 U/L; Plasma AST (U/L) ([3]; 30 mg/kg, q.d): 93 ± 7 U/L; % Inh. @ 1 μM (SCD1 [1]): 95% and 77% |
| Cc1csc(NC(=O)N2CCC(n3ccc4ccccc43)CC2)n1 [Compound 4, 4-(1H-indol-1-yl)-N-(4-methylthiazol-2-yl)-piperidine-1-carboxamide] | 6.24 and 6.30 | 70 | 6.68 and 6.49 | – | – |
| Cc1cnc(NC(=O)N2CCC(c3noc4ccc(F)cc34)CC2)s1 [Compound 14, 4-(5-fluorobenzo[d]isoxazol-3-yl)-N-(5-methylthiazol-2-yl)piperidine-1-carboxamide] | 6.52 | 86 | – | 6.77 | – |

The next lines start with results.

| pIC50 (SCD1 [1]) | inhibition at 1 µM (SCD1 [1]) [%] | pIC50 (SCD1 [2]) | pIC50 (SCD1 [4]) | SMILES | other results |
| --- | --- | --- | --- | --- | --- |
| 6.82 | 82 | 6.12 | – | CNC(=O)c1cccc(NC(=O)N2CCC(N3CCc4ccccc43)CC2)c1 [Compound 12, 4-(indolin-1-yl)-N-(3-(methylcarbamoyl)phenyl)piperidine-1-carboxamide] | – |
| 6.79 and 6.84 | 70 | 6.09 and 6.42 | – | Cc1csc(NC(=O)N2CCC(N3CCc4ccccc43)CC2)n1 [Compound 3, 4-(indolin-1-yl)-N-(4-methylthiazol-2-yl)piperidine-1-carboxamide] | % Inh. @ 1 μM (SCD1 [1]): 76% |
| 6.31 | 81 | 6.07 | – | Cc1csc(NC(=O)N2CCC(N3CCCc4ccccc43)CC2)n1 [Compound 13, 4-(3,4-dihydroquinolin-1(2H)-yl)-N-(4-methylthiazol-2-yl)piperidine-1-carboxamide] | – |
| 7.77 | 83 | – | 7.57 | O=C1OCc2ccc(NC(=O)N3CCC(N4CCc5ccc(F)cc54)CC3)cc21 [Compound 47, 4-(6-fluoroindolin-1-yl)-N-(3-oxo-1,3-dihydroisobenzofuran-5-yl)piperidine-1-carboxamide] | – |
| 7.02 | 92 | – | 6.95 | O=C(CO)N1CCc2nc(NC(=O)N3CCC(N4CCc5ccc(F)cc54)CC3)sc2C1 [Compound 35, 4-(6-fluoroindolin-1-yl)-N-(5-(2-hydroxyacetyl)-4,5,6,7-tetrahydrothiazolo[5,4-c]pyridin-2-yl)piperidine-1-carboxamide] | – |
| 6.11 | – | – | 6.36 | O=C(Nc1nc2c(s1)CN(CCO)CC2)N1CCC(N2CCc3ccc(F)cc32)CC1 [Compound 38, 4-(6-fluoroindolin-1-yl)-N-(5-(2-hydroxyethyl)-4,5,6,7-tetrahydrothiazolo[5,4-c]pyridin-2-yl)piperidine-1-carboxamide] | – |
